Experimental data reported in patent publication US20250197372A1 (priority 2020, published 2025).

Assays:
Type in all cases: biochemical
[1] = molecular target: T1, recombinant alpha-glucosidase II (murine full-length glucosidase II, alpha and beta subunits, Glu 2) (Mus musculus, UniProt Q8BHN3); test: Alpha-glucosidase II assay (4-methylumbelliferyl-alpha-D-pyranoside substrate, fluorescence); settings: Glucosidase 2; read-out: Glu2 IC50
T1 construct: made in house; host or cells: HEK-293T cells transduced with BacMam viruses (75% alpha, 25% beta); protein harvested from culture supernatant
T1 sequence (O08795 15-521): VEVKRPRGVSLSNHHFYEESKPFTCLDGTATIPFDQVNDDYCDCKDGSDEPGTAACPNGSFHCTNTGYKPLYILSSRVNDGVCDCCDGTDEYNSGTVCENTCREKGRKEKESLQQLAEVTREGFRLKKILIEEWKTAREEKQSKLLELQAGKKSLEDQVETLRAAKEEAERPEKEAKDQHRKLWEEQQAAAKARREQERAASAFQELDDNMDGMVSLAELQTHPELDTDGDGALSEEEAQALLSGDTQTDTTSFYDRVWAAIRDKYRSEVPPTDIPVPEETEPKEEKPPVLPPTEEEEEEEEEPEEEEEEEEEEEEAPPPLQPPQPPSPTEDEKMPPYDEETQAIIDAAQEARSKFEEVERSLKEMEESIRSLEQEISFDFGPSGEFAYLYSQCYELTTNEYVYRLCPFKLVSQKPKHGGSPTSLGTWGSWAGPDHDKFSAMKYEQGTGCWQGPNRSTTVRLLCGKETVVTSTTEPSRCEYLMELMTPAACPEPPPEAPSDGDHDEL
T1 sequence (Q8BHN3 33-944): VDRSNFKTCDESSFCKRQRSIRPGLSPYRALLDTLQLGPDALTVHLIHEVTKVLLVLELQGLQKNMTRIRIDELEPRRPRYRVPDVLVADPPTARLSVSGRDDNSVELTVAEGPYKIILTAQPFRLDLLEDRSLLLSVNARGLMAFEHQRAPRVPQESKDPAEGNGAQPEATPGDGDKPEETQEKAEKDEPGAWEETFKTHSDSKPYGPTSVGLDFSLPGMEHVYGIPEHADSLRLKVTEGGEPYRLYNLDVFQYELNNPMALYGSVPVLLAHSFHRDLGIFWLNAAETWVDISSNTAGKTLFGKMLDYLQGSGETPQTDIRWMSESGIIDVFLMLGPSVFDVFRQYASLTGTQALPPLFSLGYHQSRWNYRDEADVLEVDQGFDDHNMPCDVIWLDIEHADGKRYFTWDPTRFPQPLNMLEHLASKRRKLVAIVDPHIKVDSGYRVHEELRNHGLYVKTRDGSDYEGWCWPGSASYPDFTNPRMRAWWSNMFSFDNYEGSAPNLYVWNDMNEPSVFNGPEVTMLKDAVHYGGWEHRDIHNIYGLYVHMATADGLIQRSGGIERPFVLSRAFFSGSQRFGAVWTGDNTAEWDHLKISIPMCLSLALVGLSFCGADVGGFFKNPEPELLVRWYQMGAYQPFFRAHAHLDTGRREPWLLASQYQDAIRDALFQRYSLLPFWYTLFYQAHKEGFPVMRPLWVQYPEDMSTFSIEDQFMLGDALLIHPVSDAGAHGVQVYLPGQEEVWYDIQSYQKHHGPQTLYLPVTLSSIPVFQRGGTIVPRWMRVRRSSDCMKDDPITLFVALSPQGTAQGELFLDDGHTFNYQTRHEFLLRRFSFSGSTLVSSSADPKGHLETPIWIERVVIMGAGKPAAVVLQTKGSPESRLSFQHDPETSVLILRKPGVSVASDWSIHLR

[2] = molecular target: recombinant human GAA (acid alpha-glucosidase) (Homo sapiens, UniProt P10253); test: Acid alpha-glucosidase (GAA) assay (4-methylumbelliferyl-alpha-D-pyranoside substrate, fluorescence)
Procedure, shortened: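 Recombinant human enzyme preincubated 60 min at 37 °C with compound dilutions, then 4-methylumbelliferyl-alpha-D-pyranoside substrate added for 20 min at 37 °C. Stopped with glycine/NaOH pH 10; methylumbelliferone fluorescence (ex 365, em 440 nm) versus untreated enzyme; IC50 by 4-PL fit.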

[3] = molecular target: T2, recombinant human GBA (beta-glucocerebrosidase) (Homo sapiens, UniProt P04062); test: Beta-glucocerebrosidase (GBA, glucosylceramidase) assay (4-methylumbelliferyl-beta-D-pyranoside substrate, fluorescence)
T2 sequence (P04062 40-536): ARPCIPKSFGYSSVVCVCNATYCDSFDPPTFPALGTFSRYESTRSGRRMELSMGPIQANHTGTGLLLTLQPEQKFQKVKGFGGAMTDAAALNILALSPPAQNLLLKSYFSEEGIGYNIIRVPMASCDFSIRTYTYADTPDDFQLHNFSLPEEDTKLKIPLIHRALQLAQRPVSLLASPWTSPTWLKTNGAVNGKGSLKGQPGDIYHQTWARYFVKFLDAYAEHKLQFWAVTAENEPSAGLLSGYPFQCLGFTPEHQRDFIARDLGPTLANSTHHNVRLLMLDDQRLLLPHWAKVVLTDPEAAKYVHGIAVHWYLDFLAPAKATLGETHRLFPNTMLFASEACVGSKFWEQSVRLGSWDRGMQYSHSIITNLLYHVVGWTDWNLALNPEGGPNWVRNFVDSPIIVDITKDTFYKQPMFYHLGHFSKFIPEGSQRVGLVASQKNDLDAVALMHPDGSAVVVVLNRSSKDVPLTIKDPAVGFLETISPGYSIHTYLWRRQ
Procedure, shortened: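 Recombinant human GBA preincubated with compound dilutions 60 min at 37 °C, then 4-methylumbelliferyl-beta-D-pyranoside added for 60 min at 37 °C. Stopped at pH 10 (glycine/NaOH); fluorescence ex 365/em 440 nm. IC50 from 4-PL fit of inhibition relative to untreated enzyme.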

[4] = molecular target: rat maltase (partially purified alpha-glucosidase from intestinal rat powder); test: Intestinal alpha-glucosidase assay, maltose substrate (Glucose GO Kit)
Procedure, shortened: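 Partially purified alpha-glucosidase from rat intestinal powder was preincubated 60 min at 37 °C with serial compound dilutions, then given maltose or sucrose and incubated 30 min at 37 °C.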

[5] = molecular target: rat sucrase (partially purified alpha-glucosidase from intestinal rat powder) (Rattus norvegicus, UniProt P23739); test: Intestinal alpha-glucosidase assay, sucrose substrate (Glucose GO Kit)
rat sucrase (partially purified alpha-glucosidase from intestinal rat powder), sequence (P23739 whole entry): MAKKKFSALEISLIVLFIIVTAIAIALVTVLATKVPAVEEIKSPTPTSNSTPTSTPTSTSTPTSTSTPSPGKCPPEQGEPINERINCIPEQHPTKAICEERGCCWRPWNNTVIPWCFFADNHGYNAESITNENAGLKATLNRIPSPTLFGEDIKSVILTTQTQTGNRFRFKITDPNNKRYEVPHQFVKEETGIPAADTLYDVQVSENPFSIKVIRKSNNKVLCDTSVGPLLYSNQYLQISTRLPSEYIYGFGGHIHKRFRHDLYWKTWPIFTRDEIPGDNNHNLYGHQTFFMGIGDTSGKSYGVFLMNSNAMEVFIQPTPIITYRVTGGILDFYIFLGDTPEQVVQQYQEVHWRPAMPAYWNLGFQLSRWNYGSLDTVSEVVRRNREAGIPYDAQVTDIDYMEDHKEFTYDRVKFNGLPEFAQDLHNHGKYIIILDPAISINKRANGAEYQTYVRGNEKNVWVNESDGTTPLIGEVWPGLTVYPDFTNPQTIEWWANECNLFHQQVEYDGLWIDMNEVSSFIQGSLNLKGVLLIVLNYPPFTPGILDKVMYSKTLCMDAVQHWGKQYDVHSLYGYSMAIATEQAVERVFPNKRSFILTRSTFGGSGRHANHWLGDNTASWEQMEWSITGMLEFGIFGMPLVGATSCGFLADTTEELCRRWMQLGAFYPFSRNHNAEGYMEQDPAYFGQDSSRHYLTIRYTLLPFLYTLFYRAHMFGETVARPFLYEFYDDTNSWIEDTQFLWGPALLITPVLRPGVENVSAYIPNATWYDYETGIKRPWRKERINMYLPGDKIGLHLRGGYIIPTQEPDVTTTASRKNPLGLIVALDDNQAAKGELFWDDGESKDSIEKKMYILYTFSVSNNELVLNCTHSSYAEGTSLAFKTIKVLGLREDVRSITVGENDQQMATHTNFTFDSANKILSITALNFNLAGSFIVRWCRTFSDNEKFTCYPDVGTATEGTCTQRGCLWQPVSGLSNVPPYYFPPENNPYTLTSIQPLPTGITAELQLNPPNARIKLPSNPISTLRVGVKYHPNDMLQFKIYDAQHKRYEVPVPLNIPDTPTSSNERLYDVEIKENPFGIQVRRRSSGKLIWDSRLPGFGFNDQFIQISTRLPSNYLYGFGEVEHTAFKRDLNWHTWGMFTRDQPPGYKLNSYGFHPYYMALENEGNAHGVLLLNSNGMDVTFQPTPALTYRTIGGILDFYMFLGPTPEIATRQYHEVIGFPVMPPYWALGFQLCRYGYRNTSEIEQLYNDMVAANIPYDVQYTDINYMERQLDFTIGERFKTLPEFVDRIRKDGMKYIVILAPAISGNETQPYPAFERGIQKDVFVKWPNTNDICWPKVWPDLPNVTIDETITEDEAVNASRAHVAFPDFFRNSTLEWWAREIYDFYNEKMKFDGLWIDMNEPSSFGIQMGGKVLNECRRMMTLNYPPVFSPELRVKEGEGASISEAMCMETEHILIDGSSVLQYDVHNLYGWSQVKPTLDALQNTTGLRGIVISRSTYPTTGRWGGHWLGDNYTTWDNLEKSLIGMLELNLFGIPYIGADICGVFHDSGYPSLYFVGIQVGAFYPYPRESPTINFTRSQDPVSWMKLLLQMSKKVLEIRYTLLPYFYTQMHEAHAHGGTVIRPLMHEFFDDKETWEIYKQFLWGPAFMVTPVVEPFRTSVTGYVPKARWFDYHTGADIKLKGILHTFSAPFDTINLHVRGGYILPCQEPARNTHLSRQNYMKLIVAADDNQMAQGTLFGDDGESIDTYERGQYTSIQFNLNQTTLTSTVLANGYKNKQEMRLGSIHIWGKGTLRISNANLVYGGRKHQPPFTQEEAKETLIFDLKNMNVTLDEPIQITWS
Procedure, shortened: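 Enzyme from intestinal rat powder, partially purified, is exposed to compound for 60 min at 37 °C. Disaccharide substrate (maltose or sucrose respectively) then reacts 30 min at 37 °C. Heat-stopped samples are assayed for glucose, and percent inhibition versus concentration gives IC50 via 4-PL.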

Q: For `O=[N+]([O-])c1cc(-c2cccnn2)ccc1NCc1ccc(CN2C[C@H](O)[C@@H](O)[C@H](O)[C@H]2CO)cc1` [Compound 1101, (2R,3R,4R,5S)-2-(hydroxymethyl)-1-{[4-({[2-nitro-4-(pyridazin-3-yl)phenyl]amino}methyl)phenyl]methyl}piperidine-3,4,5-triol], which IC50 [1] is on record?
A: 0.043 µM

Q: What about the IC50 [2] of the same compound?
A: 0.025 µM

Q: And the IC50 [3]?
A: 32.7 µM

Q: What about the IC50 [4] of the same compound?
A: < 0.001 µM

Q: And the IC50 [5]?
A: 0.004 µM

Q: How did the IC50 [1] turn out when `COc1cc(NCCc2ccc(CCN3C[C@H](O)[C@@H](O)[C@H](O)[C@H]3CO)cc2)cc(-c2noc(C3CCC3)n2)c1` [Compound 1120, (2R,3R,4R,5S)-1-{2-[4-(2-{[3-(5-cyclobutyl-1,2,4-oxadiazol-3-yl)-5-methoxyphenyl]amino}ethyl)phenyl]ethyl}-2-(hydroxymethyl)piperidine-3,4,5-triol] was run?
A: 0.001 µM

Q: And the IC50 [2]?
A: 0.581 µM

Q: What about the IC50 [3] of the same compound?
A: 0.013 µM

Q: And the IC50 [4]?
A: 0.186 µM

Q: And the IC50 [5]?
A: 0.506 µM

Q: `O=S(=O)(Nc1cc(NCCCCCCN2C[C@H](O)[C@@H](O)[C@H](O)[C@H]2CO)cc(-c2ncccn2)c1)C1CC1` [Compound 1114, N-[3-(pyrimidin-2-yl)-5-({6-[(2R,3R,4R,5S)-3,4,5-trihydroxy-2-(hydroxymethyl)piperidin-1-yl]hexyl}amino)phenyl]cyclopropanesulfonamide] was tested. Which IC50 [1] did it give?
A: 0.003 µM

Q: What about the IC50 [2] of the same compound?
A: 0.016 µM

Q: And the IC50 [3]?
A: 5.14 µM

Q: And the IC50 [4]?
A: 0.005 µM

Q: What about the IC50 [5] of the same compound?
A: 0.052 µM

Q: `O=[N+]([O-])c1cc(-c2ncccn2)ccc1NCCc1ccc(CCN2C[C@H](O)[C@@H](O)[C@H](O)[C@H]2CO)cc1` [Compound 1111, (2R,3R,4R,5S)-2-(hydroxymethyl)-1-{2-[4-(2-{[2-nitro-4-(pyrimidin-2-yl)phenyl]amino}ethyl)phenyl]ethyl}piperidine-3,4,5-triol] was tested. Which IC50 [1] did it give?
A: 0.01 µM

Q: And the IC50 [2]?
A: 0.02 µM

Q: What about the IC50 [3] of the same compound?
A: 1.79 µM

Q: What about the IC50 [4] of the same compound?
A: < 0.001 µM

Q: What about the IC50 [5] of the same compound?
A: 0.773 µM

Q: Which results are given for `[N-]=[N+]=Nc1ccc(NCC[C@H]2CC[C@H](CCN3C[C@H](O)[C@@H](O)[C@H](O)[C@H]3CO)CC2)c([N+](=O)[O-])c1` [Compound 1107, (2R,3R,4R,5S)-2-(hydroxymethyl)-1-{2-[(1r,4r)-4-{2-[(4-azido-2-nitrophenyl)amino]ethyl}cyclohexyl]ethyl}piperidine-3,4,5-triol]?
A: IC50 [1]: 0.041 µM; IC50 [2]: 3.19 µM; IC50 [3]: 0.362 µM; IC50 [4]: 0.249 µM; IC50 [5]: 0.576 µM

Q: `O=[N+]([O-])c1cc(-c2cccnn2)ccc1NCc1cccc(CN2C[C@H](O)[C@@H](O)[C@H](O)[C@H]2CO)c1` [Compound 1089, (2R,3R,4R,5S)-2-(hydroxymethyl)-1-{[3-({[2-nitro-4-(pyridazin-3-yl)phenyl]amino}methyl)phenyl]methyl}piperidine-3,4,5-triol] was tested. Which IC50 [1] did it give?
A: 20.7 µM

Q: And the IC50 [2]?
A: 0.572 µM

Q: What about the IC50 [3] of the same compound?
A: 97.1 µM

Q: And the IC50 [4]?
A: 0.036 µM

Q: What about the IC50 [5] of the same compound?
A: 0.023 µM

Q: How did the IC50 [1] turn out when `O=[N+]([O-])c1cc(-c2ccncc2)ccc1NCCc1ccc(CCN2C[C@H](O)[C@@H](O)[C@H](O)[C@H]2CO)cc1` [Compound 1110, (2R,3R,4R,5S)-2-(hydroxymethyl)-1-{2-[4-(2-{[2-nitro-4-(pyridin-4-yl)phenyl]amino}ethyl)phenyl]ethyl}piperidine-3,4,5-triol] was run?
A: < 0.001 µM

Q: What about the IC50 [2] of the same compound?
A: 0.007 µM

Q: And the IC50 [3]?
A: 0.048 µM

Q: What about the IC50 [4] of the same compound?
A: < 0.001 µM

Q: And the IC50 [5]?
A: 0.063 µM

Q: Which IC50 [1] does the source give for `O=[N+]([O-])c1cc(-c2cccnn2)ccc1NCCc1ccc(CCN2C[C@H](O)[C@@H](O)[C@H](O)[C@H]2CO)cc1` [Compound 1109, (2R,3R,4R,5S)-2-(hydroxymethyl)-1-{2-[4-(2-{[2-nitro-4-(pyridazin-3-yl)phenyl]amino}ethyl)phenyl]ethyl}piperidine-3,4,5-triol] here?
A: < 0.001 µM

Q: And the IC50 [2]?
A: 0.003 µM

Q: And the IC50 [3]?
A: 6.55 µM

Q: What about the IC50 [4] of the same compound?
A: 0.001 µM

Q: What about the IC50 [5] of the same compound?
A: 0.446 µM

Q: How did the IC50 [1] turn out when `CS(=O)(=O)c1cc(NCc2ccc(CN3C[C@H](O)[C@@H](O)[C@H](O)[C@H]3CO)cc2)cc(-c2ncccn2)c1` [Compound 1059, (2R,3R,4R,5S)-2-(hydroxymethyl)-1-{[4-({[3-methanesulfonyl-5-(pyrimidin-2-yl)phenyl]amino}methyl)phenyl]methyl}piperidine-3,4,5-triol] was run?
A: 0.058 µM

Q: And the IC50 [2]?
A: 0.074 µM

Q: And the IC50 [3]?
A: > 100 µM

Q: What about the IC50 [4] of the same compound?
A: 0.008 µM

Q: What about the IC50 [5] of the same compound?
A: 0.045 µM

Q: Which results are given for `Cc1cc(CN2CCOCC2)cc(NCc2ccc(CN3C[C@H](O)[C@@H](O)[C@H](O)[C@H]3CO)cc2)c1` [Compound 1005, (2R,3R,4R,5S)-2-(hydroxymethyl)-1-({4-[({3-methyl-5-[(morpholin-4-yl)methyl]phenyl}amino)methyl]phenyl}methyl)piperidine-3,4,5-triol]?
A: IC50 [1]: 1.58 µM; IC50 [2]: 0.802 µM; IC50 [3]: > 100 µM; IC50 [4]: 0.058 µM; IC50 [5]: 0.661 µM

Q: `[N-]=[N+]=Nc1ccc(NCCc2cc(CCN3C[C@H](O)[C@@H](O)[C@H](O)[C@H]3CO)cc(C3CCCCC3)c2)c([N+](=O)[O-])c1` [Compound 1115, (2R,3R,4R,5S)-1-[2-(3-{2-[(4-azido-2-nitrophenyl)amino]ethyl}-5-cyclohexylphenyl)ethyl]-2-(hydroxymethyl)piperidine-3,4,5-triol] was tested. Which IC50 [1] did it give?
A: 1.07 µM

Q: And the IC50 [2]?
A: 5.49 µM

Q: And the IC50 [3]?
A: 0.407 µM

Q: What about the IC50 [4] of the same compound?
A: 6.74 µM

Q: What about the IC50 [5] of the same compound?
A: 10.5 µM

Q: With `OC[C@@H]1[C@@H](O)[C@H](O)[C@@H](O)CN1Cc1cccc(CNc2ccc(-c3cccnn3)cc2)c1` [Compound 1083, (2R,3R,4R,5S)-2-(hydroxymethyl)-1-{[3-({[4-(pyridazin-3-yl)phenyl]amino}methyl)phenyl]methyl}piperidine-3,4,5-triol] as the compound, how does the IC50 [1] read?
A: 9.99 µM

Q: What about the IC50 [2] of the same compound?
A: 1.95 µM

Q: What about the IC50 [3] of the same compound?
A: > 100 µM

Q: What about the IC50 [4] of the same compound?
A: 0.054 µM

Q: What about the IC50 [5] of the same compound?
A: 0.028 µM

Q: What does the source list for `N#Cc1cc(NCc2ccc(CN3C[C@H](O)[C@@H](O)[C@H](O)[C@H]3CO)cc2)cc(C2=COCCO2)c1` [Compound 1062, 3-(5,6-dihydro-1,4-dioxin-2-yl)-5-{[(4-{[(2R,3R,4R,5S)-3,4,5-trihydroxy-2-(hydroxymethyl)piperidin-1-yl]methyl}phenyl)-methyl]amino}benzonitrile]?
A: IC50 [1]: < 0.001 µM; IC50 [2]: 0.068 µM; IC50 [3]: 35.5 µM; IC50 [4]: < 0.001 µM; IC50 [5]: < 0.001 µM

Q: How did the IC50 [1] turn out when `OC[C@@H]1[C@@H](O)[C@H](O)[C@@H](O)CN1Cc1ccc(CNc2ccc(-c3ncccn3)cc2)cc1` [Compound 1096, (2R,3R,4R,5S)-2-(hydroxymethyl)-1-{[4-({[4-(pyrimidin-2-yl)phenyl]amino}methyl)phenyl]methyl}piperidine-3,4,5-triol] was run?
A: 1.43 µM

Q: What about the IC50 [2] of the same compound?
A: 0.259 µM

Q: And the IC50 [3]?
A: 17.6 µM

Q: And the IC50 [4]?
A: 0.011 µM

Q: And the IC50 [5]?
A: 0.023 µM

Q: For `[N-]=[N+]=Nc1ccc(NCCC23CC(CCN4C[C@H](O)[C@@H](O)[C@H](O)[C@H]4CO)(C2)C3)c([N+](=O)[O-])c1` [Compound 1103, (2R,3R,4R,5S)-1-[2-(3-{2-[(4-azido-2-nitrophenyl)amino]ethyl}bicyclo[1.1.1]pentan-1-yl)ethyl]-2-(hydroxymethyl)piperidine-3,4,5-triol], which IC50 [1] is on record?
A: 0.005 µM

Q: And the IC50 [2]?
A: 2.66 µM

Q: And the IC50 [3]?
A: 11.9 µM

Q: What about the IC50 [4] of the same compound?
A: 0.279 µM

Q: And the IC50 [5]?
A: 0.569 µM

Q: With `N#Cc1cc(NCc2cccc(CN3C[C@H](O)[C@@H](O)[C@H](O)[C@H]3CO)c2)cc(-c2cccnn2)c1` [Compound 1046, 3-(pyridazin-3-yl)-5-{[(3-{[(2R,3R,4R,5S)-3,4,5-trihydroxy-2-(hydroxymethyl)piperidin-1-yl]methyl}phenyl)methyl]amino}benzonitrile] as the compound, how does the IC50 [1] read?
A: 18 µM

Q: And the IC50 [2]?
A: 1.63 µM

Q: And the IC50 [3]?
A: 87.3 µM

Q: What about the IC50 [4] of the same compound?
A: 0.006 µM

Q: And the IC50 [5]?
A: 0.052 µM

Q: Which IC50 [1] does the source give for `N#Cc1cc(NCc2ccc(CN3C[C@H](O)[C@@H](O)[C@H](O)[C@H]3CO)cc2)cc(-c2ncccn2)c1` [Compound 1065, 3-(pyrimidin-2-yl)-5-{[(4-{[(2R,3R,4R,5S)-3,4,5-trihydroxy-2-(hydroxymethyl)piperidin-1-yl]methyl}phenyl)methyl]amino}-benzonitrile] here?
A: 0.006 µM

Q: What about the IC50 [2] of the same compound?
A: 0.09 µM

Q: And the IC50 [3]?
A: 32.1 µM

Q: What about the IC50 [4] of the same compound?
A: 0.003 µM

Q: And the IC50 [5]?
A: 0.037 µM
